# Experimental data published in patent US20080200448A1, “New Pyridine Analogues VIII 518” (ASTRAZENECA AB, priority 2007, published 2008).
# Biological target: T1, P2Y12 receptor (Homo sapiens, UniProt Q9H244)
# T1 construct: expressed in transfected cells; host or cells: CHO cells (membrane preparation)
# Experiment: Functional inhibition of 2-Me-S-ADP induced P2Y12 signalling (35S-GTPγS binding, cell membranes)
# Assay type: biochemical
# Details: 35S-GTPγS assay, membranes, EC80 concentration of 2-methyl-thio-adenosine diphosphate, 30° C. for 45 min; read-out: GTPγS (IC50 μM)
# Experimental: Functional inhibition of- the P2Y12 receptor can be measured by in vitro assays using cell membranes from P2Y12 transfected CHO-cells, the methodology is indicated below.
# Functional inhibition of 2-Me-S-ADP induced P2Y12 signalling: 5 μg of membranes were diluted in 200 μl of 200 mM NaCl, 1 mM MgCl2, 50 mM HEPES (pH 7.4), 0.01% BSA, 30 μg/ml saponin and 10 μM GDP. To this was added an EC80 concentration of agonist (2-methyl-thio-adenosine diphosphate), the required concentration of test compound and 0.1 μCi ^35S-GTPγS. The reaction was allowed to proceed at 30° C. for 45 min. Samples were then transferred on to GF/B filters using a cell harvester and washed with wash buffer (50 mM Tris (pH 7.4), 5 mM MgCl2, 50 mM NaCl). Filters were then covered with scintilant and counted for the amount of ^35S-GTPγS retained by the filter. Maximum activity was that determined in the presence of the agonist and minimum activity in the absence of the agonist following subtraction of the value determined for non-specific activity. The effect of compounds at various concentrations was plotted according to the equation
# y=A+((B−A)/(1+((C/x)̂D)))
# and IC50 estimated where A is the bottom plateau of the curve i.e. the final minimum y value B is the top of the plateau of the curve i.e. the final maximum y value C is the x value at the middle of the curve. This represents the log EC50 value when A+B=100 D is the slope factor. x is the original known x values. Y is the original known y values.
# T1 sequence (Q9H244 whole entry): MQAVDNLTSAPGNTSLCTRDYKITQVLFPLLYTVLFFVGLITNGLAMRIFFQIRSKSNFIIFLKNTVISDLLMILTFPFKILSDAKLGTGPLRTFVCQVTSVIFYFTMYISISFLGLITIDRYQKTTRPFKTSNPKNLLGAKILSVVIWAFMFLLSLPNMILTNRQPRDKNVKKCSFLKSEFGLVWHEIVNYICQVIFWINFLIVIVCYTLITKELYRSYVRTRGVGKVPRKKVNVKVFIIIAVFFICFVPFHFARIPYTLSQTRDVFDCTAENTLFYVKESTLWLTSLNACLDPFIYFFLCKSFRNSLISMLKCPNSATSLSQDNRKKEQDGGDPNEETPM
row,IC50 [µM],Compound
1,0.066,"CCOC(=O)c1cc(C#N)c(N2CC(C(=O)NS(=O)(=O)Cc3ccccc3)C2)nc1CSCCO [Example 31, Ethyl 6-{3-[(benzylsulfonyl)carbamoyl]azetidin-1-yl}-5-cyano-2-{[(2-hydroxyethyl)thio]methyl}nicotinate]"
2,0.103,"CCOC(=O)c1ccc(N2CCC(C(=O)NS(=O)(=O)Cc3ccccc3)CC2)nc1CN1CCCC1=O [Example 86, Ethyl 6-{4-[(benzylsulfonyl)carbamoyl]piperidin-1-yl}-2-[(2-oxopyrrolidin-1-yl)methyl]nicotinate]"
3,0.012,"CCOC(=O)c1cc(C#N)c(N2CCC(C(=O)NS(=O)(=O)Cc3ccc(C)cc3)CC2)nc1CN1CCCC1=O [Example 42, Ethyl 5-cyano-6-(4-{[(4-methylbenzyl)sulfonyl]carbamoyl}piperidin-1-yl)-2-[(2-oxopyrrolidin-1-yl)methyl]nicotinate]"
4,0.017,"CCOC(=O)c1cc(C#N)c(N2CCC(C(=O)NS(=O)(=O)CC3CCCC3)CC2)nc1CN1CCCC1=O [Example 36, Ethyl 5-cyano-6-(4-{[(cyclopentylmethyl)sulfonyl]carbamoyl}piperidin-1-yl)-2-[(2-oxopyrrolidin-1-yl)methyl]nicotinate]"
5,0.155,"CCCOC(=O)c1cc(Cl)c(N2CCC(C(=O)NS(=O)(=O)N(C)c3ccc(F)cc3)CC2)nc1CN1CCCC1=O [Example 95, Propyl 5-chloro-6-[4-({[(4-fluorophenyl)(methyl)amino]sulfonyl}carbamoyl)piperidin-1-yl]-2-[(2-oxopyrrolidin-1-yl)methyl]nicotinate]"
6,0.025,"CCOC(=O)c1cc(C#N)c(N2CCC(C(=O)NS(=O)(=O)Cc3ccc(F)cc3)CC2)nc1CN1CCCC1=O [Example 40, Ethyl 5-cyano-6-(4-{[(4-fluorobenzyl)sulfonyl]carbamoyl}piperidin-1-yl)-2-[(2-oxopyrrolidin-1-yl)methyl]nicotinate]"
7,0.012,"CC(C)OC(=O)c1cc(C#N)c(N2CCC(C(=O)NS(=O)(=O)Cc3ccc(Cl)cc3)CC2)nc1CN1CCCC1=O [Example 48, Isopropyl 6-(4-{[(4-chlorobenzyl)sulfonyl]carbamoyl}piperidin-1-yl)-5-cyano-2-[(2-oxopyrrolidin-1-yl)methyl]nicotinate]"
8,0.031,"CCOC(=O)c1cc(C#N)c(N2CCC(C(=O)NS(=O)(=O)Cc3ccccc3)CC2)nc1OCCO [Example 18, Ethyl 6-{4-[(benzylsulfonyl)carbamoyl]piperidin-1-yl}-5-cyano-2-(2-hydroxyethoxy)nicotinate]"
9,4.53,"CCSC(=O)c1cc(C#N)c(N2CCC(C(=O)NS(=O)(=O)Cc3ccc(C)cc3)CC2)nc1CN1CCCC1=O [Example 98, S-Ethyl 5-cyano-6-(4-{[(4-methylbenzyl)sulfonyl]carbamoyl}piperidin-1-yl)-2-[(2-oxopyrrolidin-1-yl)methyl]pyridine-3-carbothioate]"
10,0.021,"CCOC(=O)c1cc(C#N)c(N2CCC(C(=O)NS(=O)(=O)CC3CCCCC3)CC2)nc1CN1CCCC1=O [Example 65, Ethyl 5-cyano-6-(4-{[(cyclohexylmethyl)sulfonyl]carbamoyl}piperidin-1-yl)-2-[(2-oxopyrrolidin-1-yl)methyl]nicotinate]"
11,0.111,"CCOC(=O)c1cc(C#N)c(N2CCC(C(=O)NS(=O)(=O)CC3CCCC3)CC2)nc1CN1CCCCC1=O [Example 60, Ethyl 5-cyano-6-(4-{[(cyclopentylmethyl)sulfonyl]carbamoyl}piperidin-1-yl)-2-[(2-oxopiperidin-1-yl)methyl]nicotinate]"
12,0.069,"CCOC(=O)c1cc(C#N)c(N2CC(C(=O)NS(=O)(=O)Cc3ccccc3)C2)nc1CN=[N+]=[N-] [Example 9, Ethyl 2-(azidomethyl)-6-{3-[(benzylsulfonyl)carbamoyl]azetidin-1-yl}-5-cyanonicotinate]"
13,0.023,"CC(C)OC(=O)c1cc(C#N)c(N2CCC(C(=O)NS(=O)(=O)Cc3ccc(F)cc3)CC2)nc1CN1CCCC1=O [Example 51, Isopropyl 5-cyano-6-(4-{[(4-fluorobenzyl)sulfonyl]carbamoyl}piperidin-1-yl)-2-[(2-oxopyrrolidin-1-yl)methyl]nicotinate]"
14,0.033,"CCOC(=O)c1cc(Cl)c(N2CCC(C(=O)NS(=O)(=O)Cc3ccc(F)cc3F)CC2)nc1CN1CCCC1=O [Example 89, Ethyl 5-chloro-6-(4-{[(2,4-difluorobenzyl)sulfonyl]carbamoyl}piperidin-1-yl)-2-[(2-oxopyrrolidin-1-yl)methyl]nicotinate]"
15,0.145,"CCOC(=O)c1cc(Cl)c(N2CCC(C(=O)NS(=O)(=O)Nc3ccc(F)cc3)CC2)nc1CN1CCCC1=O [Example 91, Ethyl 5-chloro-6-[4-({[(4-fluorophenyl)amino]sulfonyl}carbamoyl)piperidin-1-yl]-2-[(2-oxopyrrolidin-1-yl)methyl]nicotinate]"
16,0.061,"CCOC(=O)c1cc(C#N)c(N2CCC(C(=O)NS(=O)(=O)CC3CCCCC3)CC2)nc1CN1CCCCC1=O [Example 61, Ethyl 5-cyano-6-(4-{[(cyclohexylmethyl)sulfonyl]carbamoyl}piperidin-1-yl)-2-[(2-oxopiperidin-1-yl)methyl]nicotinate]"
17,1.14,"CCOC(=O)c1cc(C#N)c(N2CCC(C(=O)N(C)S(=O)(=O)Cc3ccccc3)CC2)nc1CN1CCCCC1=O [Example 128, Ethyl 6-{4-[(benzylsulfonyl)(methyl)carbamoyl]piperidin-1-yl}-5-cyano-2-[(2-oxopiperidin-1-yl)methyl]nicotinate]"
18,0.038,"CC(C)OC(=O)c1cc(C#N)c(N2CCC(C(=O)NS(=O)(=O)Nc3ccc(F)cc3)CC2)nc1CN1CCCC1=O [Example 80, Isopropyl 5-cyano-6-[4-({[(4-fluorophenyl)amino]sulfonyl}carbamoyl)piperidin-1-yl]-2-[(2-oxopyrrolidin-1-yl)methyl]nicotinate]"
19,0.079,"CCOC(=O)c1cc(F)c(N2CCC(C(=O)NS(=O)(=O)Cc3ccccc3)CC2)nc1CN1CCCC1=O [Example 127, Ethyl 6-{4-[(benzylsulfonyl)carbamoyl]piperidin-1-yl}-5-fluoro-2-[(2-oxopyrrolidin-1-yl)methyl]nicotinate]"
20,0.03,"CCOC(=O)c1cc(C#N)c(N2CCC(C(=O)NS(=O)(=O)CC3CCC(C)CC3)CC2)nc1CN1CCCC1=O (centres unmarked) [Example 37, Ethyl 5-cyano-6-[4-({[(4-methylcyclohexyl)methyl]sulfonyl}carbamoyl)piperidin-1-yl]-2-[(2-oxopyrrolidin-1-yl)methyl]nicotinate]"
21,0.166,"CCOC(=O)c1cc(C#N)c(N2CCC(C(=O)NS(=O)(=O)Cc3ccc(SC(F)(F)F)cc3)CC2)nc1CN1CCCCC1=O [Example 101, Ethyl 5-cyano-2-[(2-oxopiperidin-1-yl)methyl]-6-{4-[({4-[(trifluoromethyl)thio]benzyl}sulfonyl)carbamoyl]piperidin-1-yl}nicotinate]"
22,0.038,"CCOC(=O)c1cc(C#N)c(N2CCC(C(=O)NS(=O)(=O)Cc3ccccc3)CC2)nc1OCCNC(C)=O [Example 20, Ethyl 2-(2-acetamidoethoxy)-6-{4-[(benzylsulfonyl)carbamoyl]piperidin-1-yl}-5-cyanonicotinate]"
23,0.048,"CCOC(=O)c1cc(C#N)c(N2CCC(C(=O)NS(=O)(=O)Cc3ccccc3)CC2)nc1OCC1CCO1 (centres unmarked) [Example 23, Ethyl 6-{4-[(benzylsulfonyl)carbamoyl]piperidin-1-yl}-5-cyano-2-(oxetan-2-ylmethoxy)nicotinate]"
